Data reported in US11524966B1 (Valo Early Discovery, Inc., priority 2017, dated 2022).

Molecular target: T1, USP28 (His-tagged USP28-FL-mammalian) (Homo sapiens, UniProt Q96RU2)
T1 construct: Expression of USP28 (1-1077)-TEV-6*His (pTT5 vector); made in house; host or cells: Expi293f cells (pTT5 vector)
T1 sequence (Q96RU2 1-1077): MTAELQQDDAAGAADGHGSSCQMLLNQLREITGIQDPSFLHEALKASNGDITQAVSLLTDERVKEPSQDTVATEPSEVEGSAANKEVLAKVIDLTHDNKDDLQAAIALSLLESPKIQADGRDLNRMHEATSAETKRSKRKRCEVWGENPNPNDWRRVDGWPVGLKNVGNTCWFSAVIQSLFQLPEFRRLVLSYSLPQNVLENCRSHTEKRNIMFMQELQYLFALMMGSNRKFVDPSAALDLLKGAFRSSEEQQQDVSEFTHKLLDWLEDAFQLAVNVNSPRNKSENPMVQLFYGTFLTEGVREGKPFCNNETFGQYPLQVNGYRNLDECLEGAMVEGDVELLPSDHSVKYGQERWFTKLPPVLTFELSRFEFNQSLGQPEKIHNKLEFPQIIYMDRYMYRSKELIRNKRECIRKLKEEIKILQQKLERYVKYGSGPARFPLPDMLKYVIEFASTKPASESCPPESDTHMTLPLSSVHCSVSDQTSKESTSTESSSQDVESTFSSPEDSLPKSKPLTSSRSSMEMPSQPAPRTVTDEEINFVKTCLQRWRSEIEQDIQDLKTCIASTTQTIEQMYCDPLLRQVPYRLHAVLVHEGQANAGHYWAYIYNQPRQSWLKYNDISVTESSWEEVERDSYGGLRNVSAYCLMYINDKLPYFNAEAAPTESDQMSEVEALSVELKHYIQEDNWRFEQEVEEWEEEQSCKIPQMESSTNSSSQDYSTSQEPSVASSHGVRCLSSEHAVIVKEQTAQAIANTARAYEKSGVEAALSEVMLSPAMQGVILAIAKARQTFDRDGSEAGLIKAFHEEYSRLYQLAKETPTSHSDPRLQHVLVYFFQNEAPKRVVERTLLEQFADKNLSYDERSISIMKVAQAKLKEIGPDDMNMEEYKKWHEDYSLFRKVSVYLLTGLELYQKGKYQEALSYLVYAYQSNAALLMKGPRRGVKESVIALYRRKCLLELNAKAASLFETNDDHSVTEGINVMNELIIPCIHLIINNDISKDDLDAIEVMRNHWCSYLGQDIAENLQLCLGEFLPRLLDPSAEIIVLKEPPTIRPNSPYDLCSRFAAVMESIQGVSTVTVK
Experiment: Ubiquitin-Rhodamine 110 Assay for USP28 Activity, Example A-1(a)
Assay type: biochemical
Details: Ubiquitin-Rhodamine 110 assay, Example A-1(a); read-out: USP28 A-1(a) IC50 range
How it was run: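 IC50 from 4-parameter logistic fit of percent inhibition versus no-enzyme and DMSO controls; compounds 25 μM to 1.3 nM, 3-fold. Ub-Rh110 cleavage (25 nM, below Km) by […] mammalian-expressed USP28-FL-His ran 45 min at room temperature, stopped with 10 mM citric acid, read ex 485/em 535.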

Structure (SMILES)	IC50 [nM]
Cc1ccc2c(N)c(C(=O)N[C@@H]3COc4cc(N5C[C@H]6CNC[C@@H]6C5)ccc4C3)sc2n1 [Example 44, 3-amino-N-((S)-7-((3aR,6aR)-hexahydropyrrolo[3,4-c]pyrrol-2(1H)-yl)chroman-3-yl)-6-methylthieno[2,3-b]pyridine-2-carboxamide]	> 2000
Nc1c(C(=O)N[C@H]2COc3cc(N4CCNCC4)ccc3C2)sc2nc(C3CC3)sc12 [Example 45]	50 to 200
Cc1nc2sc(C(=O)N[C@@H]3COc4cc(N5CC6CCC(C5)N6)c(F)cc4C3)c(N)c2s1 [Example 46, N-((3S)-7-(3 8-diazabicyclo[3.2.1]octan-3-yl)-6-fluorochroman-3-yl)-6-amino-2-methylthieno[2,3-d]thiazole-5-carboxamide]	1 to 50
Cc1nc2sc(C(=O)N[C@H]3COc4cc(N5CC6CCC(C5)N6)c(F)cc4C3)c(N)c2s1 [Example 47, N-((3R)-7-(3,8-diazabicyclo[3.2.1]octan-3-yl)-6-fluorochroman-3-yl)-6-amino-2-methylthieno[2,3-d]thiazole-5-carboxamide]	200 to 2000
Cc1ccc2c(N)c(C(=O)N[C@H]3COc4cc(N5CCNCC5)cc(Cl)c4C3)sc2n1 [Example 48, (R)-3-amino-N-(5-chloro-7-(piperazin-1-yl)chroman-3-yl)-6-methylthieno[2,3-b]pyridine-2-carboxamide]	1 to 50
Cc1ccc2c(N)c(C(=O)N[C@@H]3COc4cc(N5CCNCC5)cc(Cl)c4C3)sc2n1 [Example 49, (S)-3-amino-N-(5-chloro-7-(piperazin-1-yl)chroman-3-yl)-6-methylthieno[2,3-b]pyridine-2-carboxamide]	200 to 2000
O=C(N[C@H]1COc2cc(N3CC4CCC(C3)N4)ccc2C1)c1cnc2c(c1)CCCN2 [Example 50, N-((3R)-7-(3,8-diazabicyclo[3.2.1]octan-3-yl)chroman-3-yl)-5,6,7,8-tetrahydro-1,8-naphthyridine-3-carboxamide]	50 to 200
O=C(N[C@H]1COc2cc(N3CC4CCC(C3)N4)ccc2C1)c1cnc2c(c1)CCCO2 [Example 51, N-((3R)-7-(3,8-diazabicyclo[3.2.1]octan-3-yl)chroman-3-yl)-3,4-dihydro-2H-pyrano[2,3-b]pyridine-6-carboxamide]	200 to 2000
O=C(N[C@H]1COc2cc(N3CCNCC3)ccc2C1)c1ccc(NCc2ccccc2)nc1 [Example 52, (R)-6-(benzylamino)-N-(7-(piperazin-1-yl)chroman-3-yl)nicotinamide]	200 to 2000
C[C@H](Nc1ccc(C(=O)N[C@H]2COc3cc(N4CCNCC4)ccc3C2)cn1)c1ccccc1 [Example 53, 6-(((S)-1-phenylethyl)amino)-N-((R)-7-(piperazin-1-yl)chroman-3-yl)nicotinamide]	> 2000
C[C@@H](Nc1ccc(C(=O)N[C@H]2COc3cc(N4CCNCC4)ccc3C2)cn1)c1ccccc1 [Example 54, 6-(((R)-1-phenylethyl)amino)-N-((R)-7-(piperazin-1-yl)chroman-3-yl)nicotinamide]	> 2000
Cc1ccc2c(N)c(C(=O)N[C@H]3COc4c(F)c(N5CCNCC5)cc(F)c4C3)sc2n1 [Example 55, (R)-3-amino-N-(5,8-difluoro-7-(piperazin-1-yl)chroman-3-yl)-6-methylthieno[2,3-b]pyridine-2-carboxamide]	1 to 50
Cc1nc2sc(C(=O)N[C@H]3COc4c(F)c(N5CCNCC5)cc(F)c4C3)c(N)c2s1 [Example 56, (R)-6-amino-N-(5,8-difluoro-7-(piperazin-1-yl)chroman-3-yl)-2-methylthieno[2,3-d]thiazole-5-carboxamide]	1 to 50
O=C(N[C@H]1COc2cc(N3CCNCC3)ccc2C1)c1cnc2c(c1)CC[C@H]2O [Example 57, (R)-7-hydroxy-N-((R)-7-(piperazin-1-yl)chroman-3-yl)-6,7-dihydro-5H-cyclopenta[b]pyridine-3-carboxamide]	> 2000
